Measured values: patent US20230117034A1, “PYRAZOLOTRIAZINES” (Bayer Aktiengesellschaft, priority 2019, published 2023)

Assays:
[1] = biological target: T1, CDK9/CycT1 (Homo sapiens, UniProt P50750); assay: CDK9/CycT1 high ATP kinase assay (TR-FRET, 2 mM ATP); type: biochemical; details: 2 mM ATP (high ATP); median; read-out: CDK9/CyclinT1, 2 mM ATP (high ATP), IC50 (median)
T1 construct: Recombinant full-length His-tagged human CDK9 and CycT1; purchased Life Technologies PV4131; host or cells: insect cells
Summary of the method: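 Full-length His-tagged human CDK9/CycT1 (insect cell, ~0.5 μg/mL) preincubated 15 min at 22 °C with compound in Tris pH 8.0, MgCl2, DTT buffer before reaction with biotinylated peptide substrate at high ATP (2 mM).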

[2] = system: MDA-MB-231, human breast cancer cells; assay: Proliferation assay MDA-MB-231 (crystal violet, 4 days); type: cell-based; details: Homo sapiens, MDA-MB-231, 96 h, MDA-MB-231 cells, median, read-out: Prolif-MDA MB-231, IC50-[mol/l] (median)
Summary of the method: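 IC50 from a 4-parameter fit of crystal violet absorbance (595 nm), scaled between a day-0 plate (0%) and untreated wells (100%). Cells grown in 10% FCS medium were exposed to test substances at 0.01-10 µmol/L for 4 days, 0.1% DMSO final.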

T1 sequence (P50750 whole entry): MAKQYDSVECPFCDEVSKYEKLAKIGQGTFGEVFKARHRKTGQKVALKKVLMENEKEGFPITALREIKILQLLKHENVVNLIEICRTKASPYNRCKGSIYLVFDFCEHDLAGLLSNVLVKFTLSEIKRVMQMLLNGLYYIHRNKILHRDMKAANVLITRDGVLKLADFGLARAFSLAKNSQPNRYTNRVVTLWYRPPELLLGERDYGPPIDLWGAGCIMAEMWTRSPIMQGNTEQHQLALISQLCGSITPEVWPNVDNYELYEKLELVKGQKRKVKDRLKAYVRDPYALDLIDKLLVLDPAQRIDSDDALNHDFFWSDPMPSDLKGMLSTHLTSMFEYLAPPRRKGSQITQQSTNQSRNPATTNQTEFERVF
T1 sequence (O60563 whole entry partner): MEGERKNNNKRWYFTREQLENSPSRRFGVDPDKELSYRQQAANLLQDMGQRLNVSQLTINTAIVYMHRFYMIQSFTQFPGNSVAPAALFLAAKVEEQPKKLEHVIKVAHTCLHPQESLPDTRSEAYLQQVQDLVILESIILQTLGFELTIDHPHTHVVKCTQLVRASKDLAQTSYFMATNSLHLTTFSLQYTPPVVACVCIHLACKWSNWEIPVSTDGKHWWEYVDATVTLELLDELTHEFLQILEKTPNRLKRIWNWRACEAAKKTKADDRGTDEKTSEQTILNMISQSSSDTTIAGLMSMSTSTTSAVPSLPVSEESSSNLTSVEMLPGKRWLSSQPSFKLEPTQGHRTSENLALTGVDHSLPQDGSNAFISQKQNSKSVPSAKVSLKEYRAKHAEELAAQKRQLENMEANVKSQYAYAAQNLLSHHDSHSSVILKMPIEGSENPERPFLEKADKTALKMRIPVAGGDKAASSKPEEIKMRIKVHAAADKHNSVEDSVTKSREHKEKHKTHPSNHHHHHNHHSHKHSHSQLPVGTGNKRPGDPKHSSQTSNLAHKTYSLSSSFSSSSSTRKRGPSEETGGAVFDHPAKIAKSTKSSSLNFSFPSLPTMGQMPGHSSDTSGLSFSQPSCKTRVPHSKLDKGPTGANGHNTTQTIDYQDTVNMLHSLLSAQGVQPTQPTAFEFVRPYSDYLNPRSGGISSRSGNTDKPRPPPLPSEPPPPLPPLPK

Structure (SMILES) | IC50 [1] [nM] | IC50 [2] [nM]
N[C@H]1[C@@H]2C[C@H]1CN(c1nc(NCc3nc4ccccc4[nH]3)n3ncc(Br)c3n1)C2 [Example 288, 2-[(1R,5S,6r)-6-amino-3-azabicyclo[3.1.1]heptan-3-yl]-N-[(1H-benzimidazol-2-yl)methyl]-8-bromopyrazolo[1,5-a][1,3,5]triazin-4-amine] | > 20000 | 5.68
Brc1cnn2c(NCc3nc4ccccc4[nH]3)nc(N3C[C@H]4CC[C@@H]3CN4)nc12 (single isomer, unassigned) [Example 316, N-[(1H-benzimidazol-2-yl)methyl]-8-bromo-2-{[1R or S-(1R*4R*)]-2,5-diazabicyclo[2.2.2]octan-2-yl}pyrazolo[1,5-a][1,3,5]triazin-4-amine] | 12900 | 22.8
CN[C@H]1CCN(c2nc(NCc3nc4ccccc4[nH]3)n3ncc(Br)c3n2)C1 [Example 252, N-[(1H-benzimidazol-2-yl)methyl]-8-bromo-2-[(3S)-3-(methylamino)pyrrolidin-1-yl]pyrazolo[1,5-a][1,3,5]triazin-4-amine] | > 20000 | 30.6
CN[C@@H]1CCN(c2nc(NCc3nc4ccccc4[nH]3)n3ncc(Br)c3n2)C1 [Example 253, N-[(1H-benzimidazol-2-yl)methyl]-8-bromo-2-[(3R)-3-(methylamino)pyrrolidin-1-yl]pyrazolo[1,5-a][1,3,5]triazin-4-amine] | > 20000 | 32.8
Fc1ccc2[nH]c(CNc3nc(N4C[C@H]5CC[C@@H](C4)N5)nc4c(C5CC5)cnn34)nc2c1F [Example 294, 8-cyclopropyl-2-[(1R,5S)-3,8-diazabicyclo[3.2.1]octan-3-yl]-N-[(4,5-difluoro-1H-benzimidazol-2-yl)methyl]pyrazolo[1,5-a][1,3,5]triazin-4-amine] | 15300 | 3.37
Fc1ccc2[nH]c(CNc3nc(N4CCOCC4)nc4c(C5CCOCC5)cnn34)nc2c1F [Example 276, N-[(4,5-difluoro-1H-benzimidazol-2-yl)methyl]-2-(morpholin-4-yl)-8-(oxan-4-yl)pyrazolo[1,5-a][1,3,5]triazin-4-amine] | > 20000 | 258
FC(F)(F)Cc1cnn2c(NCc3nc4ccccc4[nH]3)nc(N3CCOCC3)nc12.O=CO [Example 265, formic acid-N-[(1H-benzimidazol-2-yl)methyl]-2-(morpholin-4-yl)-8-(2,2,2-trifluoroethyl)pyrazolo[1,5-a][1,3,5]triazin-4-amine (1/1)] | > 20000 | 106
Brc1cnn2c(NCc3nc4ccccc4[nH]3)nc(N3CCC4(CCN4)CC3)nc12 [Example 291, N-[(1H-benzimidazol-2-yl)methyl]-8-bromo-2-(1,7-diazaspiro[3.5]nonan-7-yl)pyrazolo[1,5-a][1,3,5]triazin-4-amine] | > 20000 | 59.4
Cc1cc2nc(CNc3nc(N4CCN(C)CC4)nc4c(C5CC5)cnn34)[nH]c2cc1C [Example 312, 8-cyclopropyl-N-[(5,6-dimethyl-1H-benzimidazol-2-yl)methyl]-2-(4-methylpiperazin-1-yl)pyrazolo[1,5-a][1,3,5]triazin-4-amine] | > 20000 | 3.21
c1ccc2[nH]c(CNc3nc(N4CCOCC4)nc4c(C5CCCC5)cnn34)nc2c1 [Example 244, N-[(1H-benzimidazol-2-yl)methyl]-8-cyclopentyl-2-(morpholin-4-yl)pyrazolo[1,5-a][1,3,5]triazin-4-amine] | > 20000 | 501
Brc1cnn2c(NCc3nc4ccccc4[nH]3)nc(N3CC4CCNC4C3)nc12 (centres unmarked) [Example 271, 2-(2,3,3a,4,6,6a-hexahydro-1H-pyrrolo[2,3-c]pyrrol-5-yl)-N-(1H-benzimidazol-2-ylmethyl)-8-bromo-pyrazolo[1,5-a][1,3,5]triazin-4-amine] | > 20000 | 40
CN1CCN(c2nc(NCc3nc4cc(F)c(Cl)cc4[nH]3)n3ncc(C4CC4)c3n2)CC1 [Example 309, N-[(6-chloro-5-fluoro-1H-benzimidazol-2-yl)methyl]-8-cyclopropyl-2-(4-methylpiperazin-1-yl)pyrazolo[1,5-a][1,3,5]triazin-4-amine] | > 20000 | 6.31
CN(CC1CC1)c1nc(NCc2nc3ccccc3[nH]2)n2ncc(Br)c2n1 [Example 287, N^4-[(1H-benzimidazol-2-yl)methyl]-8-bromo-N^2-(cyclopropylmethyl)-N^2-methylpyrazolo[1,5-a][1,3,5]triazine-2,4-diamine] | > 20000 | 34.3

Other lines, results leading:

IC50 [1] [nM] | IC50 [2] [nM] | Structure (SMILES)
> 20000 | 14.3 | N[C@H]1CCN(c2nc(NCc3nc4ccccc4[nH]3)n3ncc(Br)c3n2)C1 [Example 245, 2-[(3S)-3-aminopyrrolidin-1-yl]-N-[(1H-benzimidazol-2-yl)methyl]-8-bromopyrazolo[1,5-a][1,3,5]triazin-4-amine]
> 20000 | 35 | Brc1cnn2c(NCc3nc4ccccc4[nH]3)nc(N3C[C@H]4CNC[C@H]4C3)nc12 [Example 283, N-[(1H-benzimidazol-2-yl)methyl]-8-bromo-2-[(3aR,6aS)-hexahydropyrrolo[3,4-c]pyrrol-2(1H)-yl]pyrazolo[1,5-a][1,3,5]triazin-4-amine]
> 20000 | 20 | Fc1ccc2[nH]c(CNc3nc(N4CCOCC4)nc4c(C5CC5(F)F)cnn34)nc2c1 (racemic) [Example 286, 8-[(1RS)-2,2-difluorocyclopropyl]-N-[(5-fluoro-1H-benzimidazol-2-yl)methyl]-2-(morpholin-4-yl)pyrazolo[1,5-a][1,3,5]triazin-4-amine]
> 20000 | 27.9 | Fc1ccc2[nH]c(CNc3nc(N4CCOCC4)nc4c(CC(F)(F)F)cnn34)nc2c1 [Example 308, N-[(5-fluoro-1H-benzimidazol-2-yl)methyl]-2-(morpholin-4-yl)-8-(2,2,2-trifluoroethyl)pyrazolo[1,5-a][1,3,5]triazin-4-amine]
> 20000 | 36.1 | CN1CCN(c2nc(NCc3nc4c(F)cccc4[nH]3)n3ncc(C(F)(F)F)c3n2)CC1 [Example 293, N-[(4-fluoro-1H-benzimidazol-2-yl)methyl]-2-(4-methylpiperazin-1-yl)-8-(trifluoromethyl)pyrazolo[1,5-a][1,3,5]triazin-4-amine]
> 20000 | 306 | C[C@@]1(O)CCN(c2nc(NCc3nc4ccccc4[nH]3)n3ncc(Br)c3n2)C1 (single isomer, unassigned) [Example 281, (3R or S)-1-(4-{[(1H-benzimidazol-2-yl)methyl]amino}-8-bromopyrazolo[1,5-a][1,3,5]triazin-2-yl)-3-methylpyrrolidin-3-ol]
> 20000 | 6 | Fc1ccc2[nH]c(CNc3nc(N4CCOCC4)nc4c(C(F)(F)F)cnn34)nc2c1 [Example 273, N-[(5-fluoro-1H-benzimidazol-2-yl)methyl]-2-(morpholin-4-yl)-8-(trifluoromethyl)pyrazolo[1,5-a][1,3,5]triazin-4-amine]
> 18400 | 593 | Brc1cnn2c(NCc3nc4ccncc4[nH]3)nc(N3CCOCC3)nc12 [Example 22, 8-bromo-N-[(3H-imidazo[4,5-c]pyridin-2-yl)methyl]-2-(morpholin-4-yl)pyrazolo[1,5-a][1,3,5]triazin-4-amine]
> 20000 | 77.7 | CN1CCN(c2nc(NCc3nc4ccccc4[nH]3)n3ncc(C(F)(F)F)c3n2)CC1 [Example 297, N-[(1H-benzimidazol-2-yl)methyl]-2-(4-methylpiperazin-1-yl)-8-(trifluoromethyl)pyrazolo[1,5-a][1,3,5]triazin-4-amine]
> 20000 | 73.5 | Brc1cnn2c(NCc3nc4ccccc4[nH]3)nc(NCC3CC3)nc12 [Example 284, N^4-[(1H-benzimidazol-2-yl)methyl]-8-bromo-N^2-(cyclopropylmethyl)pyrazolo[1,5-a][1,3,5]triazine-2,4-diamine]
> 20000 | 34.4 | N[C@@H]1CCN(c2nc(NCc3nc4ccccc4[nH]3)n3ncc(Br)c3n2)C1 [Example 250, 2-[(3R)-3-aminopyrrolidin-1-yl]-N-[(1H-benzimidazol-2-yl)methyl]-8-bromopyrazolo[1,5-a][1,3,5]triazin-4-amine]
> 20000 | 27.7 | CNC1CCN(c2nc(NCc3nc4ccccc4[nH]3)n3ncc(Br)c3n2)CC1 [Example 272, N-[(1H-benzimidazol-2-yl)methyl]-8-bromo-2-[4-(methylamino)piperidin-1-yl]pyrazolo[1,5-a][1,3,5]triazin-4-amine]
> 20000 | 231 | CN1CCN(c2nc(NCc3nc4ccccc4[nH]3)n3ncc(Br)c3n2)C(CO)C1 (single isomer, unassigned) [Example 280, [(2R or S)-1-(4-{[(1H-benzimidazol-2-yl)methyl]amino}-8-bromopyrazolo[1,5-a][1,3,5]triazin-2-yl)-4-methylpiperazin-2-yl]methanol]
> 20000 | 285 | Brc1cnn2c(NCc3nc4c([nH]3)CCCC4)nc(N3CCOCC3)nc12 [Example 21, 8-bromo-2-(morpholin-4-yl)-N-[(4,5,6,7-tetrahydro-1H-benzimidazol-2-yl)methyl]pyrazolo[1,5-a][1,3,5]triazin-4-amine]
9220 | 31 | Cc1ccnc2[nH]c(CNc3nc(N4CCOCC4)nc4c(Br)cnn34)nc12 [Example 20, 8-bromo-N-[(7-methyl-3H-imidazo[4,5-b]pyridin-2-yl)methyl]-2-(morpholin-4-yl)pyrazolo[1,5-a][1,3,5]triazin-4-amine]
